We go through 10 molecules from ChEMBL document CHEMBL1201862, “PubChem BioAssay data set” (2004).

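48-hour exposure; five concentrations; linearly interpolated endpoints. At the GI50, growth is halved.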 Calls of active or inactive are those of the source. Cut-off read from the data, not from the text of the source: active = GI50 up to about 1.1 µM and inactive = higher.

Test systems include A498; CCRF-CEM; COLO 205; HCC 2998; MDA-MB-231; MDA-N; Malme-3M; NCI-H226; NCI-H23; OVCAR-5; SF-268; SF-295; SK-MEL-5; SK-OV-3; SN12C; SNB-19; SNB-75; UACC-257; UO-31.
Holding throughout (experiment): NCI anticancer screen, dose series, 48 h

As for `N=C(N)N/N=C/c1c(-c2ccc([N+](=O)[O-])cc2)nc2n1CCS2`, the GI50 in the assay on A498 was 20.4 µM (inactive); with CCRF-CEM it was 1.89 µM (inactive); with COLO 205, 2.76 µM (inactive); in the assay on HCC 2998, 6.32 µM (inactive); with MDA-MB-231, 6.18 µM (inactive); in the assay on MDA-N, 11.9 µM (inactive). For the same molecule, the GI50 with Malme-3M is 17.9 µM (inactive); with NCI-H226 it was 20.3 µM (inactive); with NCI-H23, 14.3 µM (inactive); in the assay on OVCAR-5 it was 14.4 µM (inactive); in the assay with SF-268, 9.55 µM (inactive); with SF-295, 18 µM (inactive). Also, the GI50 is 16.1 µM (inactive) in the assay on SK-MEL-5; 20.3 µM (inactive) with SK-OV-3; 7 µM (inactive) with SN12C; 3.54 µM (inactive) in the assay on SNB-19; 6.04 µM (inactive) in the assay with SNB-75; 18.5 µM (inactive) with UACC-257. In addition, the GI50 in the assay on UO-31 was 15.6 µM (inactive).
In the case of `C=C1C(=O)O[C@@H]2C[C@@H](C)[C@@H]3C=CC(=O)[C@@]3(C)[C@@H](OC(=O)CCCC(=O)O[C@H]3[C@@H]4C(=C)C(=O)O[C@@H]4C[C@@H](C)[C@@H]4C=CC(=O)[C@]43C)[C@H]12`, the GI50 with A498 was 0.181 µM (active); with CCRF-CEM, < 0.01 µM (active); with COLO 205, 0.0197 µM (active); in the assay with HCC 2998 it was 0.624 µM (active); in the assay with MDA-MB-231, 0.0284 µM (active); with MDA-N, 0.0183 µM (active). The GI50 in the assay on Malme-3M is 0.0176 µM (active); in the assay on NCI-H226 it was 0.505 µM (active); in the assay with NCI-H23, 0.0853 µM (active); in the assay with OVCAR-5, 0.139 µM (active); with SF-268, 0.0693 µM (active); in the assay with SF-295, 0.989 µM (active). The GI50 in the assay with SK-MEL-5 is 0.134 µM (active); in the assay with SK-OV-3 it was 1.35 µM (inactive); in the assay with SN12C, 0.0402 µM (active); with SNB-19, 1.05 µM (active); in the assay on SNB-75, 0.113 µM (active); in the assay with UACC-257 it was 0.114 µM (active). Also, the GI50 in the assay on UO-31 is 0.135 µM (active).
Take `O=C(O)c1c(-c2ccccc2)c(=O)[nH]c2ccccc12`: the GI50 with A498, in the assay on CCRF-CEM, with COLO 205, in the assay with HCC 2998, in the assay on MDA-MB-231 and in the assay on MDA-N was > 100 µM (inactive) in each case. The GI50 with Malme-3M, in the assay on NCI-H226, in the assay on NCI-H23, in the assay on OVCAR-5, in the assay with SF-268 and in the assay with SF-295 was > 100 µM (inactive) throughout. Also, the GI50 with SK-MEL-5, in the assay on SK-OV-3, in the assay with SN12C, in the assay with SNB-19, with SNB-75 and in the assay on UACC-257 was > 100 µM (inactive) in each case. Moreover, the GI50 in the assay on UO-31 was > 100 µM (inactive).
In the case of `O=C1C=CC(=O)C(CNc2ccc(C(=O)OC34CC5CC(CC(C5)C3)C4)cc2)=C1Br`, the GI50 is 17.9 µM (inactive) with A498; 1.99 µM (inactive) with CCRF-CEM; 7.29 µM (inactive) in the assay on COLO 205; 12.4 µM (inactive) in the assay with HCC 2998; 10.2 µM (inactive) in the assay with MDA-MB-231; 15.6 µM (inactive) with MDA-N. For the same molecule, the GI50 in the assay on Malme-3M is 4.9 µM (inactive); with NCI-H226 it was 16.7 µM (inactive); in the assay with NCI-H23, 7.35 µM (inactive); with OVCAR-5, 16.7 µM (inactive); with SF-268 it was 12.2 µM (inactive); in the assay with SF-295 it was 14.1 µM (inactive). For the same molecule, the GI50 in the assay with SK-MEL-5 was 9.31 µM (inactive); in the assay on SK-OV-3, 17.3 µM (inactive); with SN12C, 11.1 µM (inactive); in the assay on SNB-19 it was 15.6 µM (inactive); in the assay with SNB-75 it was 6.15 µM (inactive); in the assay on UACC-257, 13.5 µM (inactive). In addition, the GI50 with UO-31 is 6.75 µM (inactive).
As for `O=C(O)c1ccccc1CC1Cc2cc3c(cc2C1)CCC3`, the GI50 in the assay with A498, in the assay with CCRF-CEM, with COLO 205, with HCC 2998, with MDA-MB-231 and in the assay with MDA-N was > 100 µM (inactive) throughout. Besides, the GI50 in the assay on Malme-3M was > 100 µM (inactive); with NCI-H226, > 100 µM (inactive); with NCI-H23, 49.5 µM (inactive); with OVCAR-5, > 100 µM (inactive); in the assay with SF-268, > 100 µM (inactive); in the assay on SF-295 it was > 100 µM (inactive). In addition, the GI50 in the assay on SK-MEL-5, with SK-OV-3, with SN12C, with SNB-19, with SNB-75 and with UACC-257 was > 100 µM (inactive) each time. In addition, the GI50 with UO-31 was > 100 µM (inactive).
Turning to `CCOC(=O)C#Cc1cccc(C#CC(=O)OCC)c1`, the GI50 in the assay on A498 was 12.5 µM (inactive); in the assay with CCRF-CEM, 1.22 µM (inactive); in the assay on COLO 205, 5.32 µM (inactive); in the assay with HCC 2998, 0.624 µM (active); in the assay on MDA-MB-231 it was 5.79 µM (inactive); in the assay with MDA-N, 2.32 µM (inactive). For the same molecule, the GI50 is 5.14 µM (inactive) in the assay with Malme-3M; 6.58 µM (inactive) in the assay with NCI-H226; 3.66 µM (inactive) in the assay with NCI-H23; 1.14 µM (inactive) in the assay with OVCAR-5; 6.52 µM (inactive) in the assay on SF-268; 1.65 µM (inactive) in the assay on SF-295. Further, the GI50 in the assay on SK-MEL-5 was 4.25 µM (inactive); in the assay on SK-OV-3, 7.55 µM (inactive); in the assay on SN12C, 3.03 µM (inactive); with SNB-19 it was 5.71 µM (inactive); in the assay with SNB-75 it was 0.0248 µM (active); in the assay on UACC-257, 10.2 µM (inactive). Also, the GI50 in the assay with UO-31 was 4.51 µM (inactive).
Regarding `CC(C)(C)N/N=C(\C(=O)Nc1ccc([N+](=O)[O-])cc1[N+](=O)[O-])c1nc2ccc([N+](=O)[O-])cc2nc1O`, the GI50 in the assay on A498 was > 100 µM (inactive); in the assay on CCRF-CEM, 98.9 µM (inactive); with COLO 205, 24.5 µM (inactive); with HCC 2998, 37.1 µM (inactive); with MDA-MB-231 it was > 100 µM (inactive); in the assay on MDA-N, > 100 µM (inactive). The GI50 was > 100 µM (inactive) in the assay on Malme-3M; 23.7 µM (inactive) in the assay with NCI-H226; 86.1 µM (inactive) in the assay on NCI-H23; > 100 µM (inactive) in the assay on OVCAR-5; > 100 µM (inactive) in the assay on SF-268; 31.5 µM (inactive) in the assay with SF-295. Moreover, the GI50 with SK-MEL-5 is 13.6 µM (inactive); in the assay with SK-OV-3, > 100 µM (inactive); with SN12C it was > 100 µM (inactive); with SNB-19 it was > 100 µM (inactive); with SNB-75 it was > 100 µM (inactive); with UACC-257, > 100 µM (inactive). Moreover, the GI50 in the assay with UO-31 was 82.2 µM (inactive).
Turning to `CC(C)(N)CO[C@H]1C[C@H]2CC[C@@]1(C)C2(C)C`, the GI50 was 27.2 µM (inactive) in the assay on A498; 25.2 µM (inactive) with CCRF-CEM; 16.1 µM (inactive) in the assay on COLO 205; 2.11 µM (inactive) with HCC 2998; 17.8 µM (inactive) with MDA-MB-231; 15.5 µM (inactive) in the assay with MDA-N. The GI50 with Malme-3M was 18.2 µM (inactive); in the assay on NCI-H226 it was 24.7 µM (inactive); with NCI-H23, 23.7 µM (inactive); with OVCAR-5, 18.5 µM (inactive); in the assay on SF-268 it was 44.9 µM (inactive); in the assay with SF-295, 19.9 µM (inactive). The GI50 was 18.2 µM (inactive) with SK-MEL-5; 27.8 µM (inactive) with SK-OV-3; 39.9 µM (inactive) in the assay with SN12C; 24.8 µM (inactive) with SNB-19; 14.2 µM (inactive) in the assay on SNB-75; 17.8 µM (inactive) with UACC-257. Further, the GI50 in the assay with UO-31 is 16.5 µM (inactive).
Consider `COC(=O)CCC(=O)NC1=C(Nc2ccc(OC)cc2)C(=O)c2ccccc2C1=O`, for which the GI50 is 19.2 µM (inactive) in the assay with A498; 26.1 µM (inactive) in the assay on CCRF-CEM; 14.5 µM (inactive) in the assay with COLO 205; 20.1 µM (inactive) in the assay with HCC 2998; 10.7 µM (inactive) in the assay with MDA-MB-231; 1.81 µM (inactive) in the assay with MDA-N. Moreover, the GI50 was 2.05 µM (inactive) in the assay with Malme-3M; 17.7 µM (inactive) in the assay on NCI-H226; 6.34 µM (inactive) in the assay with NCI-H23; 17.1 µM (inactive) with OVCAR-5; 18.9 µM (inactive) in the assay with SF-268; 13 µM (inactive) in the assay with SF-295. Moreover, the GI50 in the assay with SK-MEL-5 is 1.83 µM (inactive); in the assay on SK-OV-3, 23.7 µM (inactive); with SN12C, 13.1 µM (inactive); in the assay on SNB-19 it was 17.8 µM (inactive); in the assay with SNB-75 it was 2.52 µM (inactive); in the assay with UACC-257 it was 4.61 µM (inactive). Further, in the assay with UO-31, the GI50 was 15.4 µM (inactive).
As for `O=C1C=C(N2CCN(CCOCCO)CC2)C(=O)c2c(O)ccc(O)c21`, the GI50 with A498 is 14.4 µM (inactive); in the assay with CCRF-CEM, 3.17 µM (inactive); in the assay on COLO 205, 1.38 µM (inactive); in the assay on HCC 2998 it was 2.7 µM (inactive); with MDA-MB-231 it was 7.35 µM (inactive); in the assay with MDA-N, 1.84 µM (inactive). Besides, the GI50 with Malme-3M was 1.52 µM (inactive); in the assay with NCI-H226, 16.9 µM (inactive); with NCI-H23 it was 2.21 µM (inactive); in the assay on OVCAR-5, 3.9 µM (inactive); in the assay with SF-268 it was 17.3 µM (inactive); with SF-295, 14 µM (inactive). Also, the GI50 in the assay on SK-MEL-5 is 1.72 µM (inactive); in the assay on SK-OV-3, 20.6 µM (inactive); in the assay with SN12C, 4.22 µM (inactive); with SNB-19, 18.4 µM (inactive); in the assay with SNB-75, 16.6 µM (inactive); in the assay on UACC-257, 1.62 µM (inactive). In the assay with UO-31, the GI50 is 10.3 µM (inactive).
